From EP3325465B1, “PESTICIDALLY ACTIVE PYRAZOLE DERIVATIVES” (Syngenta Participations AG, priority 2015, dated 2017)
Like-named read-outs stand apart in the source and are kept apart here.

Experiments:
Type in all cases: in vivo
[1] = system: Diabrotica balteata, (Corn root worm); test: Diabrotica balteata maize sprout spray test, L2 larvae; settings: 96 h
From the text: (§1) The pesticidal/insecticidal properties of the compounds according to embodiments 1 or 2 can be illustrated via the following tests: Spodoptera littoralis (Egyptian cotton leaf worm) • Cotton leaf discs were placed onto agar in 24-well microtiter plates and sprayed with aqueous test solutions prepared from 10'000 ppm DMSO stock solutions. After drying the leaf discs were infested with five L1 larvae. […] Plutella xylostella (Diamond back moth): 24-well microtiter plates with artificial diet were treated with aqueous test solutions prepared from 10'000 ppm DMSO stock solutions by pipetting. After drying, the plates were infested with L2 larvae (10 to 15 per well). The samples were assessed for mortality and growth inhibition in comparison to untreated samples 5 days after infestation. […] Diabrotica balteata, (Corn root worm) • Maize sprouts placed onto an agar layer in 24-well microtiter plates were treated with aqueous test solutions prepared from 10'000 ppm DMSO stock solutions by spraying. After drying, the plates were infested with L2 larvae (6 to 10 per well). […] Thrips tabaci (Onion thrips): Sunflower leaf discs were placed on agar in 24-well microtiter plates and sprayed with aqueous test solutions prepared from 10'000 ppm DMSO stock solutions. After drying the leaf discs were infested with a thrips population of mixed ages. The samples were assessed for mortality 6 days after infestation. […] Tetranychus urticae (Two-spotted spider mite): Bean leaf discs on agar in 24-well microtiter plates were sprayed with aqueous test solutions prepared from 10'000 ppm DMSO stock solutions. After drying the leaf discs were infested with a mite population of mixed ages. The samples were assessed for mortality on mixed population (mobile stages) 8 days after infestation. […] Euschistus heros (Neotropical Brown Stink Bug): • Two weeks old soybean plants were sprayed in a turn table spray chamber with the diluted spray solutions. After drying 2 soybean seeds were added and plants were infested with 10 N2 nymphs of the neotropical brown stink bug Euschistus heros in plastic test boxes. The samples were assessed for mortality in comparison to untreated samples 5 days after infestation. • The following compounds gave at least 80% mortality of Euschistus heros at an application rate of 12.5 ppm: Compounds 3 , 4 , 8 , 39 , 43 , 44 , 46 , 75 , 76 , 77 , 78 , 79 , 80 , 81 , 82 , 88 , 90 , 93 and 95 . Myzus persicae (Green peach aphid): Sunflower leaf discs were placed on agar in a 24-well microtiter plate and sprayed with test solutions at an application rate of 200 ppm. After drying, the leaf discs were infested with an aphid population of mixed ages. After an incubation period of 6 DAT, samples were checked for mortality. The following compounds gave at least 50% mortality of Myzus persicae: Compounds 3 , 4 , 8 , 43 , 44 , 75 , 76 , 77 , 80 , 81 , 90 and 92 . Myzus persicae (Green peach aphid): • Test compounds were applied by pipette into 24 well plates and mixed with Sucrose solution. Application rate: 12.5ppm. The plates were closed with a stretched parafilm. A plastic stencil with 24 holes is placed onto the plate and infested pea seedlings were placed directly on the Parafilm. The infested plate is closed with a gel blotting paper and another plastic stencil and then turned upside down. […]

[2] = system: Thrips tabaci (Onion thrips); test: Thrips tabaci sunflower leaf disc spray test; settings: foliar, 144 h, application rate of 200 ppm, mortality 6 days after infestation, mixed ages
From the text: as §1

[3] = system: Spodoptera littoralis (Egyptian cotton leaf worm); test: Spodoptera littoralis cotton leaf disc spray test, L1 larvae; settings: foliar, 72 h
From the text: as §1

[4] = system: Tetranychus urticae (Two-spotted spider mite); test: Tetranychus urticae bean leaf disc spray test; settings: foliar, 192 h, application rate of 200 ppm, mortality on mixed population (mobile stages) 8 days after infestation
From the text: as §1

[5] = system: Plutella xylostella (Diamond back moth); test: Plutella xylostella artificial diet test, L2 larvae; settings: 120 h, application rate of 200 ppm, mortality and growth inhibition 5 days after infestation
From the text: as §1

[6] = system: Euschistus heros (Neotropical Brown Stink Bug); test: Euschistus heros soybean plant spray test, N2 nymphs; settings: 120 h, application rate of 12.5 ppm, 5 days after infestation, N2 nymphs, read-out: mortality of Euschistus heros
From the text: as §1

[7] = application rate of 200 ppm, 4 days after infestation, L2 larvae, read-out: mortality
[8] = application rate of 200 ppm, 3 days after infestation, L1 larvae, read-out: mortality

Cn1nc(-c2c(C(F)(F)F)c(C(F)(F)C(F)(F)F)nn2C)cc1-c1ccc(Cl)c(C(=O)NC2CC2)c1 [Compound 41, 2-chloro-N-cyclopropyl-5-[2-methyl-5-[2-methyl-5-(1,1,2,2,2-pentafluoroethyl)-4-(trifluoromethyl)pyrazol-3-yl]pyrazol-3-yl]benzamide]
≥ 80%: mortality at 200 ppm [1, 7] | pest or weed control at 200 ppm [2] | mortality at 200 ppm [3, 8] | pest or weed control at 200 ppm [4] | pest or weed control at 200 ppm [5]

Cn1nc(C(F)(F)C(F)(F)F)c(C(F)(F)F)c1-c1cc(-c2ccc(Cl)c(C(=O)NC3(C#N)CC3)c2)ns1 [Compound 46, 2-chloro-N-(1-cyanocyclopropyl)-5-[5-[2-methyl-5-(1,1,2,2,2-pentafluoroethyl)-4-(trifluoromethyl)pyrazol-3-yl]isothiazol-3-yl]benzamide]
≥ 80%: mortality at 200 ppm [3, 8] | mortality at 12.5 ppm [6]

Cn1nc(C(F)(F)C(F)(F)F)c(C(F)(F)F)c1-c1ncc(-c2ccc(Cl)c(C(=O)NC3(C#N)CC3)c2)s1 [Compound 48, 2-chloro-N-(1-cyanocyclopropyl)-5-[2-[2-methyl-5-(1,1,2,2,2-pentafluoroethyl)-4-(trifluoromethyl)pyrazol-3-yl]thiazol-5-yl]benzamide]
≥ 80%: mortality at 200 ppm [1, 7] | pest or weed control at 200 ppm [2] | mortality at 200 ppm [3, 8] | pest or weed control at 200 ppm [4] | pest or weed control at 200 ppm [5]

Cn1nc(C(F)(F)C(F)(F)F)c(C(F)(F)F)c1-c1nc(-c2ccc(Cl)c(C(=O)NC3(C#N)CC3)c2)cs1 [Compound 54, 2-chloro-N-(1-cyanocyclopropyl)-5-[2-[2-methyl-5-(1,1,2,2,2-pentafluoroethyl)-4-(trifluoromethyl)pyrazol-3-yl]thiazol-4-yl]benzamide]
≥ 80%: mortality at 200 ppm [1] | pest or weed control at 200 ppm [2] | mortality at 200 ppm [3] | pest or weed control at 200 ppm [4] | pest or weed control at 200 ppm [5]

Cn1nc(C(F)(F)C(F)(F)F)c(C(F)(F)F)c1-c1cc(-c2ccc(Cl)c(C(=O)NC3CCOC3=O)c2)on1 (stereo not shown) [Compound 78, 2-chloro-5-[3-[2-methyl-5-(1,1,2,2,2-pentafluoroethyl)-4-(trifluoromethyl)pyrazol-3-yl]isoxazol-5-yl]-N-(2-oxotetrahydrofuran-3-yl)benzamide]
≥ 80%: mortality at 200 ppm [1, 7] | pest or weed control at 200 ppm [2] | mortality at 200 ppm [3, 8] | mortality at 12.5 ppm [6] | pest or weed control at 200 ppm [4]

C=C(Cl)CNC(=O)c1cc(-c2cc(-c3c(C(F)(F)F)c(C(F)(F)C(F)(F)F)nn3C)no2)ccc1Cl [Compound 82, 2-chloro-N-(2-chloroallyl)-5-[3-[2-methyl-5-(1,1,2,2,2-pentafluoroethyl)-4-(trifluoromethyl)pyrazol-3-yl]isoxazol-5-yl]benzamide]
≥ 80%: mortality at 200 ppm [1, 7] | pest or weed control at 200 ppm [2] | mortality at 200 ppm [3, 8] | mortality at 12.5 ppm [6] | pest or weed control at 200 ppm [5]

Cn1nc(C(F)(F)C(F)(F)F)c(C(F)(F)F)c1-c1cc(-c2ccc(Cl)c(C(=O)NCC=C(Cl)Cl)c2)on1 [Compound 84, 2-chloro-N-(3,3-dichloroallyl)-5-[3-[2-methyl-5-(1,1,2,2,2-pentafluoroethyl)-4-(trifluoromethyl)pyrazol-3-yl]isoxazol-5-yl]benzamide]
≥ 80%: mortality at 200 ppm [1, 7] | pest or weed control at 200 ppm [2] | pest or weed control at 200 ppm [4] | pest or weed control at 200 ppm [5]

C=C(F)CNC(=O)c1cc(-c2cc(-c3c(C(F)(F)F)c(C(F)(F)C(F)(F)F)nn3C)no2)ccc1Cl [Compound 86, 2-ch loro-N-(2-fluoroallyl)-5-[3-[2-methyl-5-(1,1,2,2,2-pentafluoroethyl)-4-(trifluoromethyl)pyrazol-3-yl]isoxazol-5-yl]benzamide]
≥ 80%: mortality at 200 ppm [1, 7] | pest or weed control at 200 ppm [2] | mortality at 200 ppm [3, 8] | pest or weed control at 200 ppm [4] | pest or weed control at 200 ppm [5]

CC(C)CNC(=O)c1cc(-c2cc(-c3c(C(F)(F)F)c(C(F)(F)C(F)(F)F)nn3C)no2)ccc1Cl [Compound 87, 2-chloro-N-isobutyl-5-[3-[2-methyl-5-(1,1,2,2,2-pentafluoroethyl)-4-(trifluoromethyl)pyrazol-3-yl]isoxazol-5-yl]benzamide]
≥ 80%: mortality at 200 ppm [1, 7] | pest or weed control at 200 ppm [2] | mortality at 200 ppm [3, 8] | pest or weed control at 200 ppm [4] | pest or weed control at 200 ppm [5]

Cn1nc(C(F)(F)C(F)(F)F)c(C(F)(F)F)c1-c1cc(-c2ccc(Cl)c(C(=O)NC3(C(F)(F)F)CC3)c2)on1 [Compound 88, 2-chloro-5-[3-[2-methyl-5-(1,1,2,2,2-pentafluoroethyl)-4-(trifluoromethyl)pyrazol-3-yl]isoxazol-5-yl]-N-[1-(trifluoromethyl)cyclopropyl]benzamide]
≥ 80%: mortality at 200 ppm [1, 7] | pest or weed control at 200 ppm [2] | mortality at 200 ppm [3, 8] | mortality at 12.5 ppm [6] | pest or weed control at 200 ppm [5]

Cn1nc(C(F)(F)C(F)(F)F)c(C(F)(F)F)c1-c1cc(-c2ccc(Cl)c(C(=O)Nc3ccncc3)c2)on1 [Compound 89, 2-chloro-5-[3-[2-methyl-5-(1,1,2,2,2-pentafluoroethyl)-4-(trifluoromethyl)pyrazol-3-yl]isoxazol-5-yl]-N-(4-pyridyl)benzamide]
≥ 80%: mortality at 200 ppm [1, 7] | pest or weed control at 200 ppm [2] | mortality at 200 ppm [3, 8] | pest or weed control at 200 ppm [4] | pest or weed control at 200 ppm [5]

Cn1nc(C(F)(F)C(F)(F)F)c(C(F)(F)F)c1-c1cc(-c2ccc(Cl)c(C(=O)NCc3ccccc3)c2)on1 [Compound 91, N-benzyl-2-chloro-5-[3-[2-methyl-5-(1,1,2,2,2-pentafluoroethyl)-4-(trifluoromethyl)pyrazol-3-yl]isoxazol-5-yl]benzamide]
≥ 80%: mortality at 200 ppm [1, 7] | pest or weed control at 200 ppm [2] | pest or weed control at 200 ppm [4] | pest or weed control at 200 ppm [5]

Cn1nc(C(F)(F)C(F)(F)F)c(C(F)(F)F)c1-c1cc(-c2ccc(Cl)c(C(N)=O)c2)on1 [Compound 94, 2-chloro-5-[3-[2-methyl-5-(1,1,2,2,2-pentafluoroethyl)-4-(trifluoromethyl)pyrazol-3-yl]isoxazol-5-yl]benzamide]
≥ 80%: mortality at 200 ppm [1, 7] | pest or weed control at 200 ppm [2] | mortality at 200 ppm [3, 8] | pest or weed control at 200 ppm [4] | pest or weed control at 200 ppm [5]

Cn1nc(C(F)(F)C(F)(F)F)c(C(F)(F)F)c1-c1cc(-c2ccc(Cl)c(C(=O)NC3(c4ccccn4)CC3)c2)on1 [Compound 95, 2-chloro-5-[3-[2-methyl-5-(1,1,2,2,2-pentafluoroethyl)-4-(trifluoromethyl)pyrazol-3-yl]isoxazol-5-yl]-N-[1-(2-pyridyl)cyclopropyl]benzamide]
≥ 80%: mortality at 200 ppm [1, 7] | pest or weed control at 200 ppm [2] | mortality at 200 ppm [3, 8] | mortality at 12.5 ppm [6] | pest or weed control at 200 ppm [5]

C=C(C)CNC(=O)c1cc(-c2cc(-c3c(C(F)(F)F)c(C(F)(F)C(F)(F)F)nn3C)no2)ccc1Cl [Compound 98, 2-chloro-N-(2-methylallyl)-5-[3-[2-methyl-5-(1,1,2,2,2-pentafluoroethyl)-4-(trifluoromethyl)pyrazol-3-yl]isoxazol-5-yl]benzamide]
≥ 80%: mortality at 200 ppm [1, 7] | pest or weed control at 200 ppm [2] | mortality at 200 ppm [3, 8] | pest or weed control at 200 ppm [4] | pest or weed control at 200 ppm [5]
